This is an account of results in publication PMC3486876 (PLoS Neglected Tropical Diseases, 2012).

A short description of this data set: Drug concentration in plasma and brain (HPLC) in Mdr1ab(−/−) mice. It counts as in vivo, mouse. The note with it: 0.23 µmol/kg SC. Here is the method: For drug plasma concentration and brain accumulation assessment, Mdr1ab(−/−) mice were injected subcutaneously with an equivalent molar dose rate for both MLs in Mdr1ab(−/−) mice (6 animals per group): 0.23 µmol/kg, corresponding to 0.20 mg/kg and 0.15 mg/kg for IVM and MOX, respectively. Mice were sacrificed at 2 or 24 h after treatment.
Mice were anesthetized 2 h or 24 h after administration with isoflurane and heparinized blood samples were collected from the orbital sinus vein. Immediately thereafter, mice were sacrificed by cervical dislocation and brains were rapidly removed. Blood samples were centrifuged at 1500 g for 10 min at 4°C and the plasma fraction was collected and stored at −20°C until analysis. The brains were washed in saline solution and frozen at −20°C until analysis.
ML concentrations were determined in plasma and brain by high performance liquid chromatography (HPLC) with fluorescence detection according to previously described and validated methods, [25]. In brief, plasma and tissues were homogenised in acetonitrile (1∶1 v/v or 1∶2 v/w, respectively). Samples were centrifuged at 2000 g and the supernatant applied to a Supelco C18 cartridge (Supelco Inc., Bellefonte, PA, USA) by using automated solid phase extraction (SPE). […] The eluate was evaporated and the dry extract was processed to obtain a fluorophore derivative by dissolving it in 1N-methylimidazole and trifluoroacetic anhydride solutions. Samples were injected into the HPLC system (PU980 pump, Jasko, Tokyo, Japan; 360 automatic injector, Kontron, Paris, France; RF-551 fluorescence detector, Shimadzu, Kyoto, Japan). For IVM and MOX a Supelcosil LC18 column (250×4.6 mm, 5 µm, Supelco, Bellefonte, PA, USA) was used with acetic acid (0.2% in water)∶methanol∶acetonitrile (4∶40∶56, v/v/v) as mobile phase.

Turning to `CO/N=C1\C[C@]2(C[C@@H]3C[C@@H](C/C=C(\C)C[C@@H](C)/C=C/C=C4\CO[C@@H]5[C@H](O)C(C)=C[C@@H](C(=O)O3)[C@]45O)O2)O[C@H](/C(C)=C/C(C)C)[C@H]1C` [Moxidectin], the Brain-to-plasma concentration ratio was determined as 0.3 ± 0.1 mL/g (2 h); 2.2 ± 0.7 mL/g (24 h); 2.2 ± 0.7 mL/g (24 h, listed as MOX). Besides, the “Drug concentration in brain” value runs as follows: (2 h) 18.8 ± 2.8 pmol/g; (2 h, listed as MOX) 18.8 ± 2.8 pmol/g; (24 h) 93.0 ± 28.9 pmol/g. Also, under “24 h”, the “Drug concentration in plasma” value worked out at 0.0428 ± 0.0093 µM. For the setting “mouse, plasma, 2 h”, this molecule showed a concentration at 2 h of 0.06 ± 0.0145 µM. The concentration at 24 h (mouse, plasma, 24 h) amounted to 0.0428 ± 0.0093 µM.
